Measured values taken from US10111432B2, “Picolinamide N-oxide compounds with fungicidal activity” (Dow AgroSciences LLC, priority 2016, dated 2018).
Where two headings read alike, the source gives them in different places.

Assays:
[1] = test system: Zymoseptoria tritici; assay: Fungicidal activity: leaf blotch of wheat (SEPTTR), disease control on wheat seedlings; format: in vivo; settings: for pest or weed control at 121.5 g/ha: low volume application, 121.5 g/H; for pest or weed control at 100 ppm: high volume application
Experimental: Technical grades of materials were dissolved in acetone, which were then mixed with nine volumes of water (H2O) containing 110 ppm Triton X-100. The fungicide solutions were applied onto wheat seedlings using an automated booth sprayer to run-off. All sprayed plants were allowed to air dry prior to further handling. All fungicides were evaluated using the aforementioned method for their activity vs. all target diseases, unless stated otherwise. Wheat leaf blotch and brown rust activity were also evaluated using track spray applications, in which case the fungicides were formulated as EC formulations, containing 0.1% Trycol 5941 in the spray solutions. Wheat plants (variety Yuma) were grown from seed in a greenhouse in 50% mineral soil/50% soil-less Metro mix until the first leaf was fully emerged, with 7-10 seedlings per pot. These plants were inoculated with an aqueous spore suspension of Zymoseptoria tritici either prior to or after fungicide treatments. After inoculation the plants were kept in 100% relative humidity (one day in a dark dew chamber followed by two to three days in a lighted dew chamber at 20° C.) to permit spores to germinate and infect the leaf. The plants were then transferred to a greenhouse set at 20° C. for disease to develop. When disease symptoms were fully expressed on the 1st leaves of untreated plants, infection levels were assessed on a scale of 0 to 100 percent disease severity. Percent disease control was calculated using the ratio of disease severity on treated plants relative to untreated plants.

[2] = test system: Puccinia triticina; assay: Fungicidal activity: wheat brown rust (PUCCRT), disease control on wheat seedlings; format: in vivo; settings: for pest or weed control at 121.5 g/ha: low volume application, 121.5 g/H; for pest or weed control at 100 ppm: high volume application
Experimental: Technical grades of materials were dissolved in acetone, which were then mixed with nine volumes of water (H2O) containing 110 ppm Triton X-100. The fungicide solutions were applied onto wheat seedlings using an automated booth sprayer to run-off. All sprayed plants were allowed to air dry prior to further handling. All fungicides were evaluated using the aforementioned method for their activity vs. all target diseases, unless stated otherwise. Wheat leaf blotch and brown rust activity were also evaluated using track spray applications, in which case the fungicides were formulated as EC formulations, containing 0.1% Trycol 5941 in the spray solutions. Wheat plants (variety Yuma) were grown from seed in a greenhouse in 50% mineral soil/50% soil-less Metro mix until the first leaf was fully emerged, with 7-10 seedlings per pot. These plants were inoculated with an aqueous spore suspension of Puccinia triticina either prior to or after fungicide treatments. After inoculation the plants were kept in a dark dew room at 22° C. with 100% relative humidity overnight to permit spores to germinate and infect the leaf. The plants were then transferred to a greenhouse set at 24° C. for disease to develop. Fungicide formulation, application and disease assessment followed the procedures as described in the Example A. Results of the evaluations are shown below in Table 4.

[3] = 24 h, 1 day protectant, read-out: SEPTTR disease control, 1DP, LV activity at 121.5 g/H
[4] = 72 h, 3 day curative, read-out: SEPTTR disease control, 3DC, LV activity at 121.5 g/H
[5] = 24 h, 1 day protectant, read-out: PUCCRT disease control, 1DP, LV activity at 121.5 g/H
[6] = 24 h, 1 day protectant, read-out: SEPTTR disease control, 1DP, HV activity at 100 ppm
[7] = 72 h, 3 day curative, read-out: SEPTTR disease control, 3DC, HV activity at 100 ppm
[8] = 24 h, 1 day protectant, read-out: PUCCRT disease control, 1DP, HV activity at 100 ppm
[9] = 72 h, 3 day curative, read-out: PUCCRT disease control, 3DC, HV activity at 100 ppm
[10] = 72 h, 3 day curative, read-out: PUCCRT disease control, 3DC, LV activity at 121.5 g/H

Structure (SMILES)	pest or weed control at 121.5 g/ha [1, 3]	pest or weed control at 121.5 g/ha [1, 4]	pest or weed control at 121.5 g/ha [2, 5]	pest or weed control at 100 ppm [1, 6]	pest or weed control at 100 ppm [1, 7]	pest or weed control at 100 ppm [2, 8]	pest or weed control at 100 ppm [2, 9]	pest or weed control at 121.5 g/ha [2, 10]
COc1cc[n+]([O-])c(C(=O)N[C@@H](C)C(=O)O[C@@H](C)C(c2ccc(Cl)cc2)c2ccc(Cl)cc2)c1O [Compound 34]	> 80%	> 80%	> 80%	–	–	–	–	–
COc1cc[n+]([O-])c(C(=O)N[C@@H](C)C(=O)O[C@@H](C)C(c2ccc(C)cc2C)c2ccc(C)cc2C)c1O [Compound 1, 2-(((S)-1-(((S)-1,1-bis(2,4-dimethylphenyl)propan-2-yl)oxy)-1-oxopropan-2-yl)carbamoyl)-3-hydroxy-4-methoxypyridine 1-oxide]	> 80%	> 80%	> 80%	> 80%	> 80%	> 80%	≤ 80%	≤ 80%
COc1cc[n+]([O-])c(C(=O)N[C@@H](C)C(=O)O[C@@H](C)[C@H](c2ccc(C)cc2)c2ccc(C)cc2F)c1O [Compound 28]	> 80%	> 80%	> 80%	> 80%	> 80%	> 80%	–	≤ 80%
COc1cc[n+]([O-])c(C(=O)N[C@@H](C)C(=O)O[C@@H](C)C(O)(c2ccc(Cl)c(F)c2)c2ccc(Cl)c(F)c2)c1O [Compound 9]	> 80%	–	–	> 80%	–	–	–	–
COc1cc[n+]([O-])c(C(=O)N[C@@H](C)C(=O)O[C@@H](C)[C@@H](c2ccc(F)cc2)c2ccc(F)cc2C)c1O [Compound 29]	> 80%	> 80%	> 80%	> 80%	> 80%	> 80%	> 80%	≤ 80%
COc1ccc(F)c(C(c2cc(OC)ccc2F)[C@H](C)OC(=O)[C@H](C)NC(=O)c2c(O)c(OC)cc[n+]2[O-])c1 [Compound 4]	–	> 80%	–	≤ 80%	–	> 80%	≤ 80%	–
COc1cc[n+]([O-])c(C(=O)N[C@@H](C)C(=O)O[C@@H](C)C(c2ccc(Cl)c(C)c2)c2ccc(Cl)c(C)c2)c1O [Compound 7]	> 80%	> 80%	> 80%	–	–	–	–	≤ 80%
COc1cc[n+]([O-])c(C(=O)N[C@@H](C)C(=O)O[C@@H](C)C(c2ccc(F)c(C)c2)c2ccc(F)c(C)c2)c1O [Compound 17]	> 80%	> 80%	≤ 80%	–	–	–	–	≤ 80%
COc1cc[n+]([O-])c(C(=O)N[C@@H](C)C(=O)O[C@@H](C)C(c2cccc(OC)c2OC)c2cccc(OC)c2OC)c1O [Compound 40]	–	≤ 80%	–	–	–	–	–	–
COc1cc[n+]([O-])c(C(=O)N[C@@H](C)C(=O)O[C@@H](C)C(c2ccc(Cl)c(F)c2)c2ccc(Cl)c(F)c2)c1O [Compound 6]	> 80%	> 80%	≤ 80%	> 80%	> 80%	> 80%	–	–
COc1cc[n+]([O-])c(C(=O)N[C@@H](C)C(=O)O[C@@H](C)C(c2ccc(F)cc2)c2ccc(F)cc2)c1O [Compound 13]	> 80%	> 80%	> 80%	> 80%	> 80%	> 80%	> 80%	≤ 80%
COc1cc(F)ccc1[C@@H](c1ccc(F)cc1)[C@H](C)OC(=O)[C@H](C)NC(=O)c1c(O)c(OC)cc[n+]1[O-] [Compound 24]	> 80%	> 80%	> 80%	> 80%	> 80%	> 80%	> 80%	≤ 80%
